Columns and labels:
[1] = system: Jurkat NFκB-luciferase cells; experiment: Jurkat NFκB-Luciferase Assay; format: cell-based; conditions: Homo sapiens; Jurkat NFκB-luciferase cells activated with anti-CD3 antibody (OKT3), 2.5 hrs at 37° C.; geometric mean; read-out: DGK NFKb Luciferase EC50
Procedure, shortened: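 Jurkat NFκB-luciferase reporter cells stimulated on plate-bound anti-CD3 (5 ug/ml coating) with compound, 2.5 hrs at 37° C then 30 min at 25° C; luminescence read with One-Glo Ex. Normalized to DMSO (basal) and 1 micromolar compound (maximum) controls; EC50 from four-parameter fit, geometric mean across experiments.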

human DGKα = human DGKα (Homo sapiens (Human), UniProt P23743); experiment: DGKα Biochemical Activity Assay (ADP-Glo); conditions: recombinant DGKα 1 nM, 100 μM ATP, 18:1 DAG/POPS/octylglucoside micelles, 1 hour at 25° C.; geometric mean; read-out: HTBS DGKa 1X ATP KM IC50
Chain of human DGKα (P23743 whole entry): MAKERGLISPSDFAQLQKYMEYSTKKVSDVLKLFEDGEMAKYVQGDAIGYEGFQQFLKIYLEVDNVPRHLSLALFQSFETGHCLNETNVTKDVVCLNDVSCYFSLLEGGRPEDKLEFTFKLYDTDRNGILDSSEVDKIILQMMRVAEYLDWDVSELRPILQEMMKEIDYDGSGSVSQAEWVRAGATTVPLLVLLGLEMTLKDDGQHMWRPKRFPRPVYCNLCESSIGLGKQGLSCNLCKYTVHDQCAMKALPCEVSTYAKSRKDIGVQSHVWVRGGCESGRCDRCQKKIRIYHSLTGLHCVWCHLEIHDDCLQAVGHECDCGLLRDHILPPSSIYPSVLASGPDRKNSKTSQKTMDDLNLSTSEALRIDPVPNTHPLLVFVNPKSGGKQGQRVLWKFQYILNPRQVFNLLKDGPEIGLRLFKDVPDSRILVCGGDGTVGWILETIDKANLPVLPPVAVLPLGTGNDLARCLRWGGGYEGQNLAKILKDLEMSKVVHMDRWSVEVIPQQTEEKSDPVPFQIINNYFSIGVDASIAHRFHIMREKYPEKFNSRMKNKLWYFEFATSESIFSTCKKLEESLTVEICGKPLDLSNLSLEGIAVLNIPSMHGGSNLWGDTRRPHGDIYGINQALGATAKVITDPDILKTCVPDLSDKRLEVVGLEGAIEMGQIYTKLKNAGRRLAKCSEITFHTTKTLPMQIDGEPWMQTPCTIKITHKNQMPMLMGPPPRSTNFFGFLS
Procedure, shortened: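 Recombinant DGKα (1 nM final) was preincubated with compound for 15 min, then reacted for 1 h at 25 °C with 100 μM ATP and octylglucoside micelles of 0.85 mM 18:1 DAG and 6.75 mM POPS in pH 7.2 MOPS with 5 mM MgCl2. ADP formed was read by ADP-Glo luminescence. IC50 came from four-parameter fits normalized to DMSO and 50 μM CU3, and values were geometric means.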

SMILES | EC50 [1] [nM] | IC50 (human DGKα) [nM]
Cc1nnc2nc(N3CCCc4c3ccnc4C#CC(C)(C)C(F)(F)F)c3c(F)cncc3n12 [Example 30, 6-fluoro-1-methyl-5-(5-(4,4,4-trifluoro-3,3-dimethylbut-1-yn-1-yl)-3,4-dihydro-1,6-naphthyridin-1(2H)-yl)pyrido[4,3-e][1,2,4]triazolo[4,3-a]pyrimidine] | 13.2 | 24.8
CN(c1cccc(-c2ccc(N3CCCS3(=O)=O)cc2)c1)c1nc2nncn2c2cnccc12 [Example 59, N-[3-[4-(1,1-dioxo-1,2-thiazolidin-2-yl)phenyl]phenyl]-N-methyl-2,4,5,7,12-pentazatricyclo[7.4.0.02,6]trideca-1(13),3,5,7,9,11-hexaen-8-amine] | 121 | 45.2
Cc1nnc2nc(N3CCCCc4c(C#CC5(C(F)F)CC5)cccc43)c3c(F)cncc3n12 [Example 67, 5-(6-((1-(difluoromethyl)cyclopropyl)ethynyl)-2,3,4,5-tetrahydro-1H-benzo[b]azepin-1-yl)-6-fluoro-1-methylpyrido[4,3-e][1,2,4]triazolo[4,3-a]pyrimidine] | 1.24 | 3.96
Cc1nnc2nc(N3CCCc4c(C#CC5(C(F)(F)F)CC5)cccc43)c3cc(F)cnc3n12 [Example 101, 3-fluoro-9-methyl-5-(5-((1-(trifluoromethyl)cyclopropyl)ethynyl)-3,4-dihydroquinolin-1(2H)-yl)pyrido[3,2-e][1,2,4]triazolo[4,3-a]pyrimidine] | 1.01 | 6.21
Cc1nnc2nc(N3CCCc4c(C#CC(C)(C)C(F)(F)F)cccc43)c3ncccc3n12 [Example 21, 3-methyl-8-[5-(4,4,4-trifluoro-3,3-dimethyl-but-1-ynyl)-3,4-dihydro-2H-quinolin-1-yl]-2,4,5,7,10-pentazatricyclo[7.4.0.02,6]trideca-1(13),3,5,7,9,11-hexaene] | 12.5 | 73.9
Cc1nnc2nc(N3CCCc4c(C#CC(C)(C)C#N)cncc43)c3c(F)cncc3n12 [Example 37, 4-(1-(6-fluoro-1-methylpyrido[4,3-e][1,2,4]triazolo[4,3-a]pyrimidin-5-yl)-1,2,3,4-tetrahydro-1,7-naphthyridin-5-yl)-2,2-dimethylbut-3-ynenitrile] | 54.9 | 52.9
Cc1nnc2nc(N3CCCc4c(C#CC5(C(F)F)CC5)cncc43)c3c(F)cncc3n12 [Example 35, 5-(5-((1-(difluoromethyl)cyclopropyl)ethynyl)-3,4-dihydro-1,7-naphthyridin-1(2H)-yl)-6-fluoro-1-methylpyrido[4,3-e][1,2,4]triazolo[4,3-a]pyrimidine] | 5.97 | 20.1
Cc1nnc2nc(N3CCOCc4c(Br)cccc43)c3c(F)cncc3n12 [Example 81, 6-bromo-1-(6-fluoro-1-methylpyrido[4,3-e][1,2,4]triazolo[4,3-a]pyrimidin-5-yl)-1,2,3,5-tetrahydrobenzo[e][1,4]oxazepine] | 46.7 | 151
Cc1nnc2nc(N3CCCOc4c(C#CC5(C)CC5)cccc43)c3c(F)cncc3n12 [Example 73, 5-(6-fluoro-1-methylpyrido[4,3-e][1,2,4]triazolo[4,3-a]pyrimidin-5-yl)-9-((1-methylcyclopropyl)ethynyl)-2,3,4,5-tetrahydrobenzo[b][1,4]oxazepine] | 3.45 | 4.17
Cc1nnc2nc(N3CCOCc4c(C#Cc5cnn(C)c5)cccc43)c3c(F)cncc3n12 [Example 95, 1-(6-fluoro-1-methylpyrido[4,3-e][1,2,4]triazolo[4,3-a]pyrimidin-5-yl)-6-((1-methyl-1H-pyrazol-4-yl)ethynyl)-1,2,3,5-tetrahydrobenzo[e][1,4]oxazepane] | 31.2 | 6.95
Cc1nnc2nc(N3CCCOc4c(C#CC(C)(C)O)cccc43)c3c(F)cncc3n12 [Example 71, 4-(5-(6-fluoro-1-methylpyrido[4,3-e][1,2,4]triazolo[4,3-a]pyrimidin-5-yl)-2,3,4,5-tetrahydrobenzo[b][1,4]oxazepin-9-yl)-2-methylbut-3-yn-2-ol] | 304 | 18.5
Cc1nnc2nc(N3CCCCc4c(C#CC(C)(C)C(C)(F)F)cccc43)c3c(F)cncc3n12 [Example 63, 5-(6-(4,4-difluoro-3,3-dimethylpent-1-yn-1-yl)-2,3,4,5-tetrahydro-1H-benzo[b]azepin-1-yl)-6-fluoro-1-methylpyrido[4,3-e][1,2,4]triazolo[4,3-a]pyrimidine] | 1.09 | 11.6
Cc1nnc2nc(N3CCOCc4c(C#CC5(C)CC5)cccc43)c3c(F)cncc3n12 [Example 79, 1-(6-fluoro-1-methylpyrido[4,3-e][1,2,4]triazolo[4,3-a]pyrimidin-5-yl)-6-((1-methylcyclopropyl)ethynyl)-1,2,3,5-tetrahydrobenzo[e][1,4]oxazepine] | 2 | 2.28
CC1(C#Cc2cccc3c2CCCN3c2nc3nncn3c3cnccc23)CC1 [Example 82] | 1.3 | 10.3
CNc1ccc2c(N(C)c3cccc(-c4ccc(S(F)(F)(F)(F)F)cc4)c3)nc3nncn3c2n1 [Example 116, N2,N5-dimethyl-N5-(4′-(pentafluoro-16-sulfaneyl)-[1,1′-biphenyl]-3-yl)pyrido[3,2-e][1,2,4]triazolo[4,3-a]pyrimidine-2,5-diamine] | 5.67 | 439
Cc1nnc2nc(N3CCCOc4c(C#CC5CC5)cccc43)c3c(F)cncc3n12 [Example 74, 9-(cyclopropylethynyl)-5-(6-fluoro-1-methylpyrido[4,3-e][1,2,4]triazolo[4,3-a]pyrimidin-5-yl)-2,3,4,5-tetrahydrobenzo[b][1,4]oxazepine] | 3.27 | 2.29
Cc1nnc2nc(N3CCCc4c(C#CC5(C)CC5)cccc43)c3ccc(C(F)(F)F)nc3n12 [Example 143, 9-methyl-5-(5-((1-methylcyclopropyl)ethynyl)-3,4-dihydroquinolin-1(2H)-yl)-2-(trifluoromethyl)pyrido[3,2-e][1,2,4]triazolo[4,3-a]pyrimidine] | 0.051 | 1.38
CNc1ccc2c(N(C)c3cccc(-c4ccc(OC)nc4)c3)nc3nncn3c2n1 [Example 119, N5-(3-(6-methoxypyridin-3-yl)phenyl)-N2,N5-dimethylpyrido[3,2-e][1,2,4]triazolo[4,3-a]pyrimidine-2,5-diamine] | 52.2 | 392
CN(c1cccc(Cl)c1)c1nc2nncn2c2nc(N)ccc12 [Example 132, N5-(3-chlorophenyl)-N5-methylpyrido[3,2-e][1,2,4]triazolo[4,3-a]pyrimidine-2,5-diamine] | 91.4 | 388
Cc1nnc2nc(N3CCCc4c(C#CC(C)(C)C(F)(F)F)cncc43)c3c(F)cncc3n12 [Example 36, 6-fluoro-1-methyl-5-(5-(4,4,4-trifluoro-3,3-dimethylbut-1-yn-1-yl)-3,4-dihydro-1,7-naphthyridin-1(2H)-yl)pyrido[4,3-e][1,2,4]triazolo[4,3-a]pyrimidine] | 8.86 | 40.4
COc1ccc2c(N(C)c3cccc(-c4ccc(S(F)(F)(F)(F)F)cc4)c3)nc3nncn3c2n1 [Example 115, 2-methoxy-N-methyl-N-(4′-(pentafluoro-16-sulfaneyl)-[1,1′-biphenyl]-3-yl)pyrido[3,2-e][1,2,4]triazolo[4,3-a]pyrimidin-5-amine] | 1.74 | 448
Cc1nnc2nc(N3CCCc4c(C#CC5(C)CC5)cccc43)c3c(F)cncc3n12 [Example 40, 6-fluoro-1-methyl-5-(5-((1-methylcyclopropyl)ethynyl)-3,4-dihydroquinolin-1(2H)-yl)pyrido[4,3-e][1,2,4]triazolo[4,3-a]pyrimidine] | 2.14 | 7.92
Cc1nnc2nc(N3CCCCc4c(Br)cccc43)c3c(F)cncc3n12 [Example 69, 5-(6-bromo-2,3,4,5-tetrahydro-1H-benzo[b]azepin-1-yl)-6-fluoro-1-methylpyrido[4,3-e][1,2,4]triazolo[4,3-a]pyrimidine] | 13.9 | 220
Cc1nnc2nc(N3CCOCc4c(C#CC(C)(C)O)cccc43)c3c(F)cncc3n12 [Example 77, 4-(1-(6-fluoro-1-methylpyrido[4,3-e][1,2,4]triazolo[4,3-a]pyrimidin-5-yl)-1,2,3,5-tetrahydrobenzo[e][1,4]oxazepin-6-yl)-2-methylbut-3-yn-2-ol] | 130 | 12.6
CN(c1cccc(-c2ccc(C3CC3)cc2)c1)c1nc2nncn2c2ncc(F)cc12 [Example 155, N-(4′-cyclopropyl-[1,1′-biphenyl]-3-yl)-3-fluoro-N-methylpyrido[3,2-e][1,2,4]triazolo[4,3-a]pyrimidin-5-amine] | 0.707 | 17.2
Cc1nnc2nc(N3CCCc4c(C#CC5(C(F)(F)F)CC5)cccc43)c3ncccc3n12 [Example 23, 3-methyl-8-[5-[2-[1-(trifluoromethyl)cyclopropyl]ethynyl]-3,4-dihydro-2H-quinolin-1-yl]-2,4,5,7,10-pentazatricyclo[7.4.0.02,6]trideca-1(13),3,5,7,9,11-hexaene] | 13.5 | 41.9
CN(c1cccc(-c2ccc(C3CC3)cc2)c1)c1nc2nncn2c2nc(N)ccc12 [Example 127, N5-(4′-cyclopropyl-[1,1′-biphenyl]-3-yl)-N5-methylpyrido[3,2-e][1,2,4]triazolo[4,3-a]pyrimidine-2,5-diamine] | 1.43 | 7.25

— patent publication US11926628B2 (Gilead Sciences, Inc., priority 2021, dated 2024)
